Assay results published in patent EP4029374A1, “NITROGEN CONTAINING SURFACTANTS FOR AGRICULTURAL USE” (Nouryon Chemicals International B.V., priority 2021, dated 2022).

Columns and labels:
[1] = Solubility of prior art betaine surfactants in concentrated glyphosate salt compositions; assay type: physicochemical
Source text: WO2000038523 (Huntsman, US6500784, US6653257, EP1139761) discloses an amphoteric surfactant with the structure RCONH(CH2)n N^+R^12CH2COO- wherein R1 is alkyl or hydroxyl alkyl group with C1 to C4 and n = 2 - 4, and discloses a betaine with the structure R R^12N^+CH2COO- wherein R1 is alkyl or hydroxyl alkyl group with C1 to C4. The amphoterics disclosed there mainly functioned as a co-surfactant to solubilize a ether carboxylate in to concentrated glyphosate systems. In the context of the document, there was no mention of bioefficacy of betaines or other amphoteric surfactants by themselves. […] However, without proper testing of individual surfactant, it is not possible to determine whether the effect seen in the mixture of three surfactants comes from the claimed surfactant or the other two surfactants. Moreover, no actual bioefficacy data and especially no data are provided on the degree of "overall kill" provided in the absence of surfactants and in the presence of surfactants; without such data it is not possible to determine whether or not the claimed alkyl amido betaine was effective in enhancing herbicidal activity of glyphosate under the conditions of the test reported. This patent requires Na ion to be < 0.035% for the glyphosate formulation to be stable. Moreover, it used only IPA-glyphosate as examples. It is only recently known that many soluble surfactants in IPA-glyphosate are not soluble in concentrated K or NH4 glyphosate formulations. […] Since stearyl dimethylamidopropyl betaine itself had poor solubility in concentrated potassium glyphosate system, it is expected that the solubility of stearyl dimethylamidopropyl betaine plus ether carboxylate would be even worst in the concentrated potassium glyphosate system. Therefore, the claimed formulation in claim 1 in the document may not be stable, that is not useful, in a concentrated K glyphosate system.
US 20050170965 also indicates the aqueous glyphosate formulation is stable on storage. However, it is only recently known that many stable surfactants in IPA-glyphosate are not soluble in concentrated K or NH4 glyphosate formulations. Tests indicate that a composition of 360 g ae/l di-ammonium glyphosate could not dissolve 5.4% coco dimethyl betaine and a composition of 480 g ae/l potassium glyphosate could not dissolve 5.4% coco dimethylamidopropyl betaine. Since coco dimethyl betaine and coco dimethylamidopropyl betaine had poor solubility in concentrated potassium and di-ammonium glyphosate systems, it is expected that the claimed formulation in claim 16 of the document may not be stable in concentrated K or NH4 glyphosate systems. […]

wheat = test: Glyphosate formulation trial on wheat (Example 5); assay type: in vivo; settings: 168 g ae/ha; glyphosate to surfactant ratio 3 : 1; picture taken at 21DAT (FIG. 13)
Source text: Cocoamine-6EO betaine was compared in the same trial with tallowamine-15EO as the positive control and the surfactant-free sample as negative control in glyphosate formulations. Glyphosate to surfactant ratio was 3 : 1.
This can be seen from the picture at FIG. 13, taken at 21DAT.

morning glory; wheat = test: Green house trial of glyphosate formulations, % Control (Example 3); assay type: in vivo; settings: 930, 465 and 233 g ae/ha; 28 DAT; compared with glyphosate formulation without surfactant; result in words (FIGS. 9-10)
Source text: Glyphosate formulation containing oleylamphopolycarboxy glycinate (Na salt) was compared in a green house trial with glyphosate formulation containing tallowamine-10EO (as positive control) and glyphosate alone in terms of % Control. Three glyphosate rates were used, 930 g ae/ha, 465 gae/ha, and 233 g ae/ha.
The results are plotted in FIGS. 9-10.

[2] = test system: morning glory (IPOHE, a broad leaf week) and winter wheat (TRZAW, a narrow leaf grass); test: Greenhouse spray of concentrated glyphosate samples, % control at 28 DAT (Example 2); assay type: in vivo; settings: glyphosate : surfactant 13:1, 489 and 978 g ae/H, result in words (FIGS. 7-8)
Procedure: Table. 3 Studied glyphosate formulations using various surfactants
The concentrated glyphosate samples were diluted to two glyphosate rates and sprayed in a green house so that the final glyphosate rates of the spray solutions were 489 and 978 g ae/H. Three samples at two rates equals six treatments that were sprayed on each of two species, morning glory (IPOHE, a broad leaf week) and winter wheat (TRZAW, a narrow leaf grass). […]
Higher ratio means lower surfactant concentration. A ratio of 13:1 means the sample, at the same glyphosate concentration, has 4.3 times less surfactant than a sample with a ratio of 3:1.
Sample A (glyphosate with added tallowamine-15EO) served as a positive control. Sample B containing only glyphosate without added surfactant served as a negative control.
FIGS. 7-8 illustrates the % control results at 28 DAT.

CCCCCCCCCCCCCCCCCC(=O)NCCC[N+](C)(C)CC(=O)[O-] [stearyl dimethylamidopropyl betaine]
surfactant solubility ([1]; in a composition of 51.3% potassium glyphosate): < 1.8%

Ethoxylated cocoamine (6EO) betaine [cocoamine-6EO betaine]
control to wheat (wheat): excellent control

coco dimethyl betaine
surfactant solubility ([1]; in a composition of 360 g ae/l di-ammonium glyphosate): < 5.4%

coco dimethylamidopropyl betaine
surfactant solubility ([1]; in a composition of 360 g ae/l potassium glyphosate): < 80 g/L | surfactant solubility ([1]; in a composition of 480 g ae/l potassium glyphosate): < 5.4%

oleylamphopolycarboxy glycinate (Na salt)
glyphosate efficacy (morning glory; wheat): enhanced glyphosate efficacy

tallow diamine trimethyl di-betaine
glyphosate bioefficacy [2]: enhanced glyphosate bioefficacy even at very low rate

tallowamine-15EO
control to wheat (wheat): excellent control
